Key:
CD11b protein = test: Western blot of CD11b protein in brain (hippocampus and amygdala) of CRS model; type: in vivo, C57BL/6NTac mice; details: CRS+BA group
Description: (§1) In order to confirm the antidepressant efficacy of bornyl acetate on the animal model of stress depression, an animal model of depression induced by chronic restrained stress (CRS) was prepared. Specifically, the animal model, 8-week-old male C57BL/6NTac mice after birth (Narabiotechnology, Korea; weight 22-24 g) had been stabilized for 1 week. A 50 ml conical tube (SPL Life sciences, Pocheon, Korea) was punched to make a hole, thereby making a restraint frame. The mice were put in the frame and restrained for 2 hours every day for 14 days. After restraint, the mice were allowed to freely ingest water and food in the home cage. The hippocampus and amygdala of the brain were excised. They were added to 200 μl of a protein lysis buffer (10 mM Tris, 0.5 mM EDTA, 0.25 M sucrose), and proteins were isolated using a grinder. The isolated protein was quantified by the Bradford method (Bio-rad, USA) using bovine serum albumin (BSA, Sigma, USA), and then 25 μg of the protein was separated by 10% sodium dodecyl sulfate-polyacrylamide gel electrophoresis (SDS-PAGE) and transferred to polyvinylidene difluoride (PVDF) membrane (Gendepot, UK). PVDF membranes were blocked in 5% skimmed milk (BD, USA) for 1 hour. […] Identification and quantitative analysis of proteins were analyzed using an imaging device ChemiDoc XRS+ (Bio-Rad). […]

COX-2 protein = test: Western blot of COX-2 protein in brain (hippocampus and amygdala) of CRS model; type: in vivo, C57BL/6NTac mice; details: CRS+BA group
Description: as §1

CC(=O)OC1CC2CCC1(C)C2(C)C (stereo not shown) [BA, bornyl acetate]
significantly inhibited: expression of CD11b protein (CRS-induced increase) (CD11b protein; amygdala) | expression of CD11b protein (CRS-induced increase) (CD11b protein; hippocampus) | protein expression of COX-2 (CRS-induced increase) (COX-2 protein; amygdala) | protein expression of COX-2 (CRS-induced increase) (COX-2 protein; hippocampus)

From US12285399B2, “Composition comprising bornyl acetate or pharmaceutically acceptable salt thereof as active ingredient for prevention or treatment of stress-related disorder” (UNIVERSITY-INDUSTRY COOPERATION GROUP OF KYUNG HEE …, priority 2019, dated 2025)
